Source: patent US20250368667A1, “USP1 INHIBITOR” (Shanghai Qilu Pharmaceutical Research and Development …, priority 2022, published 2025)
Where two headings read alike, the source gives them in different places.

Experiments:
NCI-H1693 cells = test: USP1 CTG test: NCI-H1693 cell killing experiment; type: cell-based; conditions: 6 days, CTG detection, read-out: IC50 (inhibition of NCI-H1693 cells)
Protocol: Test Example 2 USP1 CTG Test Method
NCI-H1693 cell killing experiment was used to verify the biological activity of USP1i compound in vitro.
NCI-H1693 cells were purchased from ATCC (article number: CRL-5866) and cultured in a cell incubator with 5% CO2 (containing 5% CO2 and 95% air by volume) at 37° C.; 1640 complete medium: comprising 94 wt % RPMI-1640 liquid medium (Gibco, article number: 11875-093), 5 wt % FBS (Gibco, article number: 10099-141), and 1 wt % Pen Strep (Gibco, article number: 15070-063): Fluorescent 384-well plate (Perkin Elmer, article number: 6007279); Trypsin (Gibco, article number: 25200056); CTG Buffer (CellTiter-Glo® 2.0 Cell Viability Assay, Promega, article number: G9241).
[formula] • X: Log10 (compound complex concentration); • Y: corresponding response;
Top and Bottom: corresponding response corresponding to the same unit of Y; and it is noted that: • if X is not the logarithm of dosage, data shall be returned and converted; • if any baseline response is subtracted, the Bottom is set as a constant value of 0.0; and fitting the data to get the IC50 value; • wherein the fitting conditions may be adjusted according to the specific conditions of the data; specifically, Constraint conditions of Bottom, TOP and HillSlope may be adjusted appropriately so as to achieve the curve that is most in line with the actual situation.

[1] = Pharmacokinetic determination in male CD1 mice; type: in vivo; conditions: PO 10 mg/kg, plasma
Protocol: Test Example 3 Pharmacokinetic Determination of the Compound of the Present Application in Male CD1 Mice
Male CD1 mice were used as test animals. After intravenous injection and oral administration, plasma samples were collected at specific time points. The concentration of the compound in plasma was detected by LC-MS/MS, and the parameters of drug metabolism and pharmacokinetics (DMPK) were calculated to evaluate the pharmacokinetic characteristics of the compounds in plasma of mice.
Compounds of Table 5 in this application; the structural formula and preparation method of compound 88 are shown in the above examples. The structural formula of comparative compound 1 is: […]
Male CD1 mice having a weight of between 20 g and 30 g; supplied by Vital River.
Administration of the compound in this application: both group IV (intravenous injection group) and group PO (oral administration group) consist of 3 mice; for group IV, the dosage is 1 mg/kg and the administration volume is 5 mL/kg; and for group PO, the dosage is 10 mg/kg and the administration volume is 10 mL/kg. The administration solvent was 5 vol % DMSO+10 vol % Soltol (Kolliphor HS 15)+85 vol % Saline (physiological saline).
• 0.02 to 0.03 mL of blood was collected from the saphenous vein in group IV at 0.083, 0.25, 0.5, 1, 2, 4, 8 and 24 hours after administration and from the saphenous vein in group PO at 0.25, 0.5, 1, 2, 4, 8 and 24 hours after administration. The collected samples were placed in EDTA-K2 test tube; plasma was separated by centrifuging at 4° C. for […], which was then stored at −80° C. until analysis of the samples.
(§1) Mice plasma samples were treated by: • 1) adding 200 μL acetonitrile to 10 μL plasma sample for precipitation, vortex mixing the mixture for 30 seconds and centrifuging at 4° C. and 3900 rpm for 15 minutes; and • 2) diluting the obtained supernatant with water for 3 folds, and analyzing the concentration of compounds to be detected by LC/MS/MS.

[2] = system: OV0589 Patient-derived Xenograft (PDX); test: Pharmacodynamic experiment of OV0589 patient-derived xenograft (PDX); type: in vivo, Female BALB/c nude mice; conditions: oral; for TGI % (tumor growth inhibition rate): Day 36, OV0589 PDX in BALB/c nude mice; for inhibitory effect on tumor growth (FIG. 1): OV0589 PDX
Protocol: Test Example 5 Pharmacodynamic Experiment of OV0589 Patient-derived Xenograft (PDX)
Female BALB/c nude mice were used as test animals. After oral administration of the compound of this application, the tumor was measured and weighed regularly, and the tumor growth inhibition and tolerance in different administration groups were investigated. After the investigate, plasma and tumor were collected at a specific time point for pharmacokinetic analysis/pharmacodynamics (PK/PD) analysis.
Tumor-bearing mouse tumor (R10P8) was purchased from Sino-American Crown Biotechnology (Beijing) Co., Ltd. Ubiquityl-PCNA (Lys 164) (D5C7P) mAb antibody was purchased from Cell Siganaling company, and the article number is 13439S. PCNA (PC10) antibody was purchased from Santa Cruz company, and the article number is se-56.
Female BALB/c nude mice having a weight of between 21 and 25 g; supplier: Beijing An Kai Yibo Biotechnology Co., Ltd.
Under a temperature of 20° C. to 26° C. and a humidity of 30% to 70% and alternate illumination day and night, when the tumor (R10P8) of the tumor-bearing mice grew to a diameter of about 1 cm (the tumor size reaches 50 to 800 mm^3), the tumor was collected and cut into tumor blocks of about 2 to 3 mm^3, and the tumor block (R10P8) was inoculated subcutaneously into the right anterior scapula of female BALB/c nude mice. The tumor growth in mice was observed regularly. After 35 days of inoculation, when the tumor (R10P8) grew to an average volume of about 150 mm^3 (the range of enrollment was 86.54 mm^3 to […]), according to the tumor size and the weight of mice, StudyDirector™ (version No. 3.1.399.19, supplied by Studylog System, Inc., S. San Francisco, California, USA) was used for random grouping, and the administration was performed for these groups the next day.
Twelve mice were randomly divided into four groups, namely, G1 to G4. Group G1 is the solvent control group, and the solvent is: 10 vol % DMSO+20 vol % Solutol+70 vol % water+5 vol % DMSO+10 vol % Solutol+85 vol % saline. Group G2 was orally administrated with KSQ4279 at a dosage of 100 mg/kg (npk), and the solvent was 5 vol % DMSO+10 vol % Solutol+85 vol % saline.
The tumor growth in mice was observed regularly, and the tumor volume was measured (see FIG. 1), and the change of body weight of mice was observed regularly (see FIG. 2). After 36 days of administration, plasma and tumor were collected for PK/PD analysis.

[3] = Pharmacokinetic determination in male Beagle dogs; type: in vivo; conditions: IV 0.2 mg/kg; for AUC(0-t) / clearance: dog, plasma; for clearance: read-out: CL (overall clearance rate) (converted)
Protocol: Test Example 4 Pharmacokinetic Determination of Compounds of the Present Application in Male Beagle Dogs
Male Beagle dogs were used as test animals. After intravenous injection and oral administration, plasma samples were collected at specific time points. The concentration of the compound in plasma was detected by LC-MS/MS, and the DMPK parameters were calculated to evaluate the pharmacokinetic characteristics of the compound in dog plasma.
Compounds of Table 6 in this application. […] The structural formula of KSQ-4279 is: […]
Male Beagle dogs having a weight of 9 to 13 kg, supplied by Beijing Mars Biotechnology Co., Ltd.
Administration information of the compound in this application: both group IV (intravenous injection group) and group PO (oral administration group) consist of 3 dogs; for group IV, the dosage was 0.2 mg/kg and the administration volume was 0.5 mL/kg; for group PO, the dosage was 3 mg/kg and the administration volume was 3 mL/kg. The administration solvent was 5 vol % DMSO+10 vol % Solutol (Kolliphor HS 15)+85 vol % Saline (physiological saline).
0.5 mL of blood was collected from the head vein in group IV at 0.083, 0.25, 0.5, 1, 2, 4, 8 and 24 hours respectively after administration, and from the head vein in group PO at 0.25, 0.5, 1, 2, 4, 8 and 24 hours respectively after administration. The collected samples were placed in EDTA-K2 test tube; plasma was separated by centrifuging at 2 to 8° C. and 2000 g for 10 minutes, which was then stored at −80° C. until analysis of the samples.
as §1, with “Dog” for “Mice”, “50” for “10”, “seconds,” for “seconds”, “of the” for “of”

[4] = molecular target: recombinant human His6-USP1/His6-UAF1 composite protein (Homo sapiens (Human), UniProt O94782); test: USP1 enzyme activity detection (Ub-Rho fluorescence); type: biochemical; conditions: USP1/UAF1, Ub-Rho substrate 300 nM, 1 hour pre-incubation; read-out: IC50 (enzymatic inhibition of USP1)
Sequence of recombinant human His6-USP1/His6-UAF1 composite protein (O94782 whole entry): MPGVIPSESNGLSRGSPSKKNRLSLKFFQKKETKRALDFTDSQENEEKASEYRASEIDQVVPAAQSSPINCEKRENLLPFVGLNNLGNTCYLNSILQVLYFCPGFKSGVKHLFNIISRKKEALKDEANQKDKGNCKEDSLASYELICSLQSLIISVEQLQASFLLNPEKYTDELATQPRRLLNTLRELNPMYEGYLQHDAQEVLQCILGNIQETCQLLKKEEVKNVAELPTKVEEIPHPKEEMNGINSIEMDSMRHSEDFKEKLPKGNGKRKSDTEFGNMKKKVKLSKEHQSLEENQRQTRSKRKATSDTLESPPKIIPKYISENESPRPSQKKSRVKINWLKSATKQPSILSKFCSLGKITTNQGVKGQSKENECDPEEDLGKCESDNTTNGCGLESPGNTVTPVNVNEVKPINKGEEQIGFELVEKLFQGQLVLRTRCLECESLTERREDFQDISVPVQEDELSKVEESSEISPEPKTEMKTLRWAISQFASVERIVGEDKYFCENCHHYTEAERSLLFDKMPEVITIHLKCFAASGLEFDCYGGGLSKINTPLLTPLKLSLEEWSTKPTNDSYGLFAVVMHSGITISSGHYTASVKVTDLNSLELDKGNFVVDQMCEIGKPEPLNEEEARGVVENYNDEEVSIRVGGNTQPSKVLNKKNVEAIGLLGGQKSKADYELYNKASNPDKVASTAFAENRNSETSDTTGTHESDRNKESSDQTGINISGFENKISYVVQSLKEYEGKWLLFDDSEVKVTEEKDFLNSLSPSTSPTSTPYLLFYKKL
Sequence of recombinant human His6-USP1/His6-UAF1 composite protein (Q8TAF3 whole entry partner): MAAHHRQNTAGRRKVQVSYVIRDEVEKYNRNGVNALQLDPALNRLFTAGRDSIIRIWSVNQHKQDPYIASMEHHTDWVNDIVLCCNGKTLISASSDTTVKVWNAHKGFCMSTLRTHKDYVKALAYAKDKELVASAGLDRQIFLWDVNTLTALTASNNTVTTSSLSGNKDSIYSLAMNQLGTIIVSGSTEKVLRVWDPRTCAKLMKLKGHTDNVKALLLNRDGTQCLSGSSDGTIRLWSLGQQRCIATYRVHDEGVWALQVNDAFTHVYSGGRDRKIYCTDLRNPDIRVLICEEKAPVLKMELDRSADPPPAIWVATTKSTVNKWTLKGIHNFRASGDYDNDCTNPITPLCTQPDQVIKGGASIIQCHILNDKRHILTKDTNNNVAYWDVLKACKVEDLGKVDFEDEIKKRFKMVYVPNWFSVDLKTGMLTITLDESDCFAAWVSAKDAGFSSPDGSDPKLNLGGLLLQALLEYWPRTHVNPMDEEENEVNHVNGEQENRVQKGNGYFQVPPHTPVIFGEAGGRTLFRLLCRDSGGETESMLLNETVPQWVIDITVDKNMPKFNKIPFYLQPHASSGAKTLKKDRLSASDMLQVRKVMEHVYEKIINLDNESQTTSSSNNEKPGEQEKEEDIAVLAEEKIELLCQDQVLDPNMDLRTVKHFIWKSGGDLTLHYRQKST

Compound	Blood concentration [1]	Curve area [1]	AUC(0-t) [3] [ng·h/mL]	clearance [3] [mL/min/kg]	IC50 (NCI-H1693 cells; Homo sapiens, 144 h) [nM]	TGI % (tumor growth inhibition rate) ([2]; 100 mg/kg) [%]	inhibitory effect on tumor growth (FIG. 1) ([2]; 100 mg/kg)	other results
COc1ncnc(C2CC2)c1-c1ncc2c(n1)n(Cc1ccc(-c3nc(C(F)(F)F)cn3C)cc1)c1nccn21 [Comparative compound 1, reference compound]	2246	6558	–	–	53.7	–	–	–
COc1ncnc(C2CC2)c1-c1ncc2c(n1)n(Cc1ccc(-c3nc(C(F)(F)F)cn3C)cc1)c1nncn21 [Comparative compound 2, reference compound]	–	–	–	–	174	–	–	–
COc1ncnc(C2CC2)c1-c1ncc2c3ccc(C#N)cc3n(Cc3ccc4c(c3)CCCn3cc(C(F)(F)F)nc3-4)c2n1 [Compound 58]	–	–	–	–	–	107.7	the best inhibitory effect on tumor growth	IC50 (NCI-H1693 cells): 13 nM; TGI % (tumor growth inhibition rate) ([2]; 30 mg/kg): 97.5%; AUClast [3]: 190 ng·h/mL; CL (overall clearance rate) [3]: 15.8 mL/min/kg

Second part, led by results:

Blood concentration [1]	Curve area [1]	AUC(0-t) [3] [ng·h/mL]	clearance [3] [mL/min/kg]	Compound	IC50 (NCI-H1693 cells; Homo sapiens, 144 h) [nM]	TGI % (tumor growth inhibition rate) ([2]; 100 mg/kg) [%]	inhibitory effect on tumor growth (FIG. 1) ([2]; 100 mg/kg)	other results
4803	44062	236	15	COc1ncnc(C2CC2)c1-c1ncc2c3cn(C)nc3n(Cc3ccc(-c4nc(C(F)(F)F)cn4C(C)C)cc3)c2n1 [Compound 88, 6-(4-cyclopropyl-6-methoxypyrimidin-5-yl)-8-(4-(1-isopropyl-4-(trifluoromethyl)-1H-imidazol-2-yl)benzyl)-2-methyl-2,8-dihydropyrazolo[4′,3′: 4,5]pyrrolo[2,3-d]pyrimidine]	9.2	–	–	IC50 [4]: 4.5 nM
–	–	124	28.3	COc1ncnc(C2CC2)c1-c1ncc2cnn(Cc3ccc(-c4nc(C(F)(F)F)cn4C(C)C)cc3)c2n1 [KSQ-4279, reference compound]	–	85.7	obviously worse than compound 58 (dosage of 100 mg/kg)	–
